Reference: patent US7445765B2, “Radiopharmaceutical for diagnostic imaging containing a technetium-99m nitride heterocomplex” (Nihon Medi-Physics Co., Ltd., priority 2000, dated 2008)

Columns and labels:
[1] = Measurement of Log k′ by HPLC, PNP5 or PNP6 heterocomplexes; assay type: physicochemical; details: HPLC C18, methanol/phosphate buffer (pH 7.4, 0.02M), 1.0 mL/min; extrapolated to 0% organic solvent
Experimental: Log k′o values, measured at various compositions of the mobile phase, were determind for the ^99mTc(N) heterocomplexes obtained using PNP5 or PNP6 as a bisphosphinoamine compound. The analysis of the relationship between Log k′o values and the mobile-phase composition yielded extrapolated Log k′ values as a measure of the partitioning between the hydrophobic stationary phase and water. The Log k′ values were extrapolated from the linear part of the curve.
TLC chromatography was carried out on silica-gel plates and using the mixture ethanol/chloroform/toluene/[NH4][CH3COO] (0.5 M) (5:3:3:0.5) as mobile phase. […] HPLC analysis was performed on a Beckman System Gold instrument equipped with a Programmable Solvent Module 126, a scanning detector Module 166 and a radioisotope detector Module 170. A C18 reversed-phase precolumn (Ultrasphere Beckman, 4.6×45 mm), a C18 reversed-phase column (Ultrasphere Beckman, 4.6×250 mm) and a 100-μL loop were used. The mobile phase was methanol in various mixtures (% v/v) with a phosphate buffer (pH=7.4, 0.02M) at a flow rate of 1.0 mL min^−1. Before injection, all solutions were purified using a CM Sep-Pak cartridge. […]

[2] = Biodistribution of the 99mTc(N) heterocomplexes in rats (organ uptake, heart accumulation, heart/lung and heart/liver ratios); assay type: in vivo, female Sprague-Dawley rats
Summary of the method: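 Female Sprague-Dawley rats (200–250 g, n=3), ketamine/xylazine anaesthesia, got 300–370 kBq of each purified heterocomplex in pH 7.4 phosphate buffer (10% ethanol) via the jugular vein. They were killed at several post-injection times. Heart blood and washed, weighed organs were gamma-counted, taking whole blood as 6.5% of body weight.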

- LOG k′ [1]: 3.69
- Biodistribution in rats: Adrenal glands ([2]; 0 min post injection): 2.87 % dose/g
- Biodistribution in rats: Blood ([2]; 0 min post injection): 6.65 % dose/g
- Biodistribution in rats: Brain ([2]; 0 min post injection): 0.45 % dose/g
- Biodistribution in rats: Heart ([2]; 0 min post injection): 5.01 % dose/g
- Biodistribution in rats: Intestine ([2]; 0 min post injection): 1.71 % dose/g
- Biodistribution in rats: Kidneys ([2]; 0 min post injection): 3.71 % dose/g
- Biodistribution in rats: Liver ([2]; 0 min post injection): 0.82 % dose/g
- Biodistribution in rats: Lungs ([2]; 0 min post injection): 6.58 % dose/g
- Biodistribution in rats: Muscle ([2]; 0 min post injection): 0.09 % dose/g
- Biodistribution in rats: Spleen ([2]; 0 min post injection): 1.75 % dose/g
- Biodistribution in rats: Submax. glands ([2]; 0 min post injection): 0.16 % dose/g
- Biodistribution in rats: Adrenal glands ([2]; 2 min post injection): 3.95 % dose/g
- Biodistribution in rats: Blood ([2]; 2 min post injection): 0.11 % dose/g
- Biodistribution in rats: Brain ([2]; 2 min post injection): 0.03 % dose/g
- Biodistribution in rats: Heart ([2]; 2 min post injection): 3.94 % dose/g
- Biodistribution in rats: Intestine ([2]; 2 min post injection): 7.97 % dose/g
- Biodistribution in rats: Kidneys ([2]; 2 min post injection): 14.69 % dose/g
- Biodistribution in rats: Liver ([2]; 2 min post injection): 2.66 % dose/g
- Biodistribution in rats: Lungs ([2]; 2 min post injection): 0.99 % dose/g
- Biodistribution in rats: Muscle ([2]; 2 min post injection): 0.20 % dose/g
- Biodistribution in rats: Spleen ([2]; 2 min post injection): 2.68 % dose/g
- Biodistribution in rats: Submax. glands ([2]; 2 min post injection): 1.77 % dose/g
- Biodistribution in rats: Adrenal glands ([2]; 10 min post injection): 3.73 % dose/g
- Biodistribution in rats: Blood ([2]; 10 min post injection): 0.03 % dose/g
- Biodistribution in rats: Brain ([2]; 10 min post injection): 0.01 % dose/g
- Biodistribution in rats: Heart ([2]; 10 min post injection): 3.69 % dose/g
- Biodistribution in rats: Intestine ([2]; 10 min post injection): 9.04 % dose/g
- Biodistribution in rats: Kidneys ([2]; 10 min post injection): 9.16 % dose/g
- Biodistribution in rats: Liver ([2]; 10 min post injection): 1.61 % dose/g
- Biodistribution in rats: Lungs ([2]; 10 min post injection): 0.88 % dose/g
- Biodistribution in rats: Muscle ([2]; 10 min post injection): 0.21 % dose/g
- Biodistribution in rats: Spleen ([2]; 10 min post injection): 1.79 % dose/g
- Biodistribution in rats: Submax. glands ([2]; 10 min post injection): 1.79 % dose/g
- Biodistribution in rats: Adrenal glands ([2]; 20 min post injection): 3.00 % dose/g
- Biodistribution in rats: Blood ([2]; 20 min post injection): 0.02 % dose/g
- Biodistribution in rats: Brain ([2]; 20 min post injection): 0.01 % dose/g
- Biodistribution in rats: Heart ([2]; 20 min post injection): 3.63 % dose/g
- Biodistribution in rats: Intestine ([2]; 20 min post injection): 9.63 % dose/g
- Biodistribution in rats: Kidneys ([2]; 20 min post injection): 6.58 % dose/g
- Biodistribution in rats: Liver ([2]; 20 min post injection): 0.96 % dose/g
- Biodistribution in rats: Lungs ([2]; 20 min post injection): 0.57 % dose/g
- Biodistribution in rats: Muscle ([2]; 20 min post injection): 0.17 % dose/g
- Biodistribution in rats: Spleen ([2]; 20 min post injection): 1.41 % dose/g
- Biodistribution in rats: Submax. glands ([2]; 20 min post injection): 1.57 % dose/g
- Biodistribution in rats: Adrenal glands ([2]; 30 min post injection): 3.36 % dose/g
- Biodistribution in rats: Blood ([2]; 30 min post injection): 0.02 % dose/g
- Biodistribution in rats: Brain ([2]; 30 min post injection): 0.01 % dose/g
- Biodistribution in rats: Heart ([2]; 30 min post injection): 3.73 % dose/g
- Biodistribution in rats: Intestine ([2]; 30 min post injection): 6.70 % dose/g
- Biodistribution in rats: Kidneys ([2]; 30 min post injection): 6.70 % dose/g
- Biodistribution in rats: Liver ([2]; 30 min post injection): 0.72 % dose/g
- Biodistribution in rats: Lungs ([2]; 30 min post injection): 0.64 % dose/g
- Biodistribution in rats: Muscle ([2]; 30 min post injection): 0.19 % dose/g
- Biodistribution in rats: Spleen ([2]; 30 min post injection): 0.92 % dose/g
- Biodistribution in rats: Submax. glands ([2]; 30 min post injection): 1.88 % dose/g
- Biodistribution in rats: Adrenal glands ([2]; 60 min post injection): 4.17 % dose/g
- Biodistribution in rats: Blood ([2]; 60 min post injection): 0.01 % dose/g
- Biodistribution in rats: Brain ([2]; 60 min post injection): 0.01 % dose/g
- Biodistribution in rats: Heart ([2]; 60 min post injection): 3.76 % dose/g
- Biodistribution in rats: Intestine ([2]; 60 min post injection): 6.52 % dose/g
- Biodistribution in rats: Kidneys ([2]; 60 min post injection): 5.73 % dose/g
- Biodistribution in rats: Liver ([2]; 60 min post injection): 0.20 % dose/g
- Biodistribution in rats: Lungs ([2]; 60 min post injection): 0.46 % dose/g
- Biodistribution in rats: Muscle ([2]; 60 min post injection): 0.21 % dose/g
- Biodistribution in rats: Spleen ([2]; 60 min post injection): 0.41 % dose/g
- Biodistribution in rats: Submax. glands ([2]; 60 min post injection): 1.84 % dose/g
- Biodistribution in rats: Adrenal glands ([2]; 120 min post injection): 3.44 % dose/g
- Biodistribution in rats: Blood ([2]; 120 min post injection): 0.01 % dose/g
- Biodistribution in rats: Brain ([2]; 120 min post injection): 0.00 % dose/g
- Biodistribution in rats: Heart ([2]; 120 min post injection): 3.31 % dose/g
- Biodistribution in rats: Intestine ([2]; 120 min post injection): 6.57 % dose/g
- Biodistribution in rats: Kidneys ([2]; 120 min post injection): 3.48 % dose/g
- Biodistribution in rats: Liver ([2]; 120 min post injection): 0.10 % dose/g
- Biodistribution in rats: Lungs ([2]; 120 min post injection): 0.25 % dose/g
- Biodistribution in rats: Muscle ([2]; 120 min post injection): 0.23 % dose/g
- Biodistribution in rats: Spleen ([2]; 120 min post injection): 0.21 % dose/g
- Biodistribution in rats: Submax. glands ([2]; 120 min post injection): 2.09 % dose/g
SMILES: CCOCCN1CC[P](CCCOC)(CCCOC)[99Tc+]2(#[N])([S]C(N(CCOCC)CCOCC)=[S]2)[P](CCCOC)(CCCOC)CC1 [[^99mTc(N) (PNP5) (DBODC)]^+]
